{"source": "PubChem BioAssay AID2060498", "about": "(Molecular Pharmacology Branch, DTP, NCI, 2025);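 further: spheroids exposed to compounds for 7 days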;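 on viability, T/C: 100% = DMSO vehicle control viability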", "system": "171881-019-R-J1-PDC tumor spheroids, viability", "assay": "Anticancer human tumor 171881-019-R-J1-PDC patient-derived invasive breast carcinoma cell line growth inhibition [GQUAD]", "details": "spheroids with HUVEC and MSC; for IC50: curve of first compound; for viability, T/C: stronger effect = lower value", "method_in_brief": "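Tumor cells were grown as complex spheroids with HUVEC endothelial cells and mesenchymal stem cells as stroma. G-quadruplex stabilizers were combined with targeted agents over half-log dilutions from near the clinical Cmax, or from 10 microM.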", "data": [{"smiles": "CC(C)(O)C1CCC(Nc2ccc3ncc(-c4cccc(C(F)(F)F)c4)n3n2)CC1", "note": "(configuration not stated) + CN(C)c1ccc(Nc2c3ccc(NC(=O)CCN4CCCC4)cc3nc3cc(NC(=O)CCN4CCCC4)ccc23)cc1", "values": [{"measurement": "IC50", "setting": "second compound 0.0316 µM", "result": 1860, "unit": "nM"}, {"measurement": "IC50", "setting": "second compound 0.1 µM", "result": 1840, "unit": "nM"}, {"measurement": "IC50", "setting": "second compound 0.316 µM", "result": "< 31.6", "unit": "nM"}, {"measurement": "IC50", "setting": "second compound 1 µM", "result": "< 31.6", "unit": "nM"}, {"measurement": "IC50", "setting": "second compound 3.16 µM", "result": "< 31.6", "unit": "nM"}, {"measurement": "IC50", "setting": "second compound 10 µM", "result": "< 31.6", "unit": "nM"}, {"measurement": "viability, T/C", "setting": "second compound 0.0316 µM, first compound 0.0316 µM", "result": 99.9, "unit": "%"}, {"measurement": "viability, T/C", "setting": "second compound 0.0316 µM, first compound 0.1 µM", "result": 103, "unit": "%"}, {"measurement": "viability, T/C", "setting": "second compound 0.0316 µM, first compound 0.316 µM", "result": 102, "unit": "%"}, {"measurement": "viability, T/C", "setting": "second compound 0.0316 µM, first compound 1 µM", "result": 73.8, "unit": "%"}, {"measurement": "viability, T/C", "setting": "second compound 0.0316 µM, first compound 3.16 µM", "result": 30, "unit": "%"}, {"measurement": "viability, T/C", "setting": "second compound 0.0316 µM, first compound 10 µM", "result": 25.6, "unit": "%"}, {"measurement": "viability, T/C", "setting": "second compound 0.1 µM, first compound 0.0316 µM", "result": 94.5, "unit": "%"}, {"measurement": "viability, T/C", "setting": "second compound 0.1 µM, first compound 0.1 µM", "result": 99.5, "unit": "%"}, {"measurement": "viability, T/C", "setting": "second compound 0.1 µM, first compound 0.316 µM", "result": 101, "unit": "%"}, {"measurement": "viability, T/C", "setting": "second compound 0.1 µM, first compound 1 µM", "result": 77.1, "unit": "%"}, {"measurement": "viability, T/C", "setting": "second compound 0.1 µM, first compound 3.16 µM", "result": 24.3, "unit": "%"}, {"measurement": "viability, T/C", "setting": "second compound 0.1 µM, first compound 10 µM", "result": 27.6, "unit": "%"}, {"measurement": "viability, T/C", "setting": "second compound 0.316 µM, first compound 0.0316 µM", "result": 43.7, "unit": "%"}, {"measurement": "viability, T/C", "setting": "second compound 0.316 µM, first compound 0.1 µM", "result": 47.2, "unit": "%"}, {"measurement": "viability, T/C", "setting": "second compound 0.316 µM, first compound 0.316 µM", "result": 39.3, "unit": "%"}, {"measurement": "viability, T/C", "setting": "second compound 0.316 µM, first compound 1 µM", "result": 22.2, "unit": "%"}, {"measurement": "viability, T/C", "setting": "second compound 0.316 µM, first compound 3.16 µM", "result": 9.07, "unit": "%"}, {"measurement": "viability, T/C", "setting": "second compound 0.316 µM, first compound 10 µM", "result": 6.72, "unit": "%"}, {"measurement": "viability, T/C", "setting": "second compound 1 µM, first compound 0.0316 µM", "result": 3.24, "unit": "%"}, {"measurement": "viability, T/C", "setting": "second compound 1 µM, first compound 0.1 µM", "result": 2.74, "unit": "%"}, {"measurement": "viability, T/C", "setting": "second compound 1 µM, first compound 0.316 µM", "result": 3.28, "unit": "%"}, {"measurement": "viability, T/C", "setting": "second compound 1 µM, first compound 1 µM", "result": 1, "unit": "%"}, {"measurement": "viability, T/C", "setting": "second compound 1 µM, first compound 3.16 µM", "result": 0.4, "unit": "%"}, {"measurement": "viability, T/C", "setting": "second compound 1 µM, first compound 10 µM", "result": 0.21, "unit": "%"}, {"measurement": "viability, T/C", "setting": "second compound 3.16 µM, first compound 0.0316 µM", "result": 0.19, "unit": "%"}, {"measurement": "viability, T/C", "setting": "second compound 3.16 µM, first compound 0.1 µM", "result": 0.18, "unit": "%"}, {"measurement": "viability, T/C", "setting": "second compound 3.16 µM, first compound 0.316 µM", "result": 0.29, "unit": "%"}, {"measurement": "viability, T/C", "setting": "second compound 3.16 µM, first compound 1 µM", "result": 0.13, "unit": "%"}, {"measurement": "viability, T/C", "setting": "second compound 3.16 µM, first compound 3.16 µM", "result": 0.43, "unit": "%"}, {"measurement": "viability, T/C", "setting": "second compound 3.16 µM, first compound 10 µM", "result": 0.14, "unit": "%"}, {"measurement": "viability, T/C", "setting": "second compound 10 µM, first compound 0.0316 µM", "result": 0.15, "unit": "%"}, {"measurement": "viability, T/C", "setting": "second compound 10 µM, first compound 0.1 µM", "result": 0.47, "unit": "%"}, {"measurement": "viability, T/C", "setting": "second compound 10 µM, first compound 0.316 µM", "result": 0.23, "unit": "%"}, {"measurement": "viability, T/C", "setting": "second compound 10 µM, first compound 1 µM", "result": 0.13, "unit": "%"}, {"measurement": "viability, T/C", "setting": "second compound 10 µM, first compound 3.16 µM", "result": 0.32, "unit": "%"}, {"measurement": "viability, T/C", "setting": "second compound 10 µM, first compound 10 µM", "result": 0.17, "unit": "%"}]}]}
